Reference: the NIST ThermoML archive (doi:10.1016/j.jct.2012.01.008)
Numbers after ± are expanded uncertainties.

Conditions: Liquid, Vibrating tube method

| SMILES | mass density (298.15 K, 100 kPa) [kg/m3] | mass density (298.15 K, 10000 kPa) [kg/m3] | mass density (298.15 K, 15000 kPa) [kg/m3] | mass density (298.15 K, 20000 kPa) [kg/m3] | mass density (298.15 K, 25000 kPa) [kg/m3] | mass density (298.15 K, 30000 kPa) [kg/m3] | mass density (298.15 K, 35000 kPa) [kg/m3] | mass density (298.15 K, 40000 kPa) [kg/m3] | mass density (298.15 K, 45000 kPa) [kg/m3] | mass density (298.15 K, 50000 kPa) [kg/m3] | mass density (318.15 K, 100 kPa) [kg/m3] | mass density (318.15 K, 10000 kPa) [kg/m3] | mass density (318.15 K, 15000 kPa) [kg/m3] | mass density (318.15 K, 20000 kPa) [kg/m3] | mass density (318.15 K, 25000 kPa) [kg/m3] | mass density (318.15 K, 30000 kPa) [kg/m3] | mass density (318.15 K, 35000 kPa) [kg/m3] | mass density (318.15 K, 40000 kPa) [kg/m3] | mass density (318.15 K, 45000 kPa) [kg/m3] | mass density (318.15 K, 50000 kPa) [kg/m3] | other results |
| --- | --- | --- | --- | --- | --- | --- | --- | --- | --- | --- | --- | --- | --- | --- | --- | --- | --- | --- | --- | --- | --- |
| CCC[N+]1(C)CCCCC1.O=S(=O)([N-]S(=O)(=O)C(F)(F)F)C(F)(F)F | 1408.9 ± 0.6 | 1415.4 ± 0.8 | 1418.7 ± 0.8 | 1421.9 ± 0.9 | 1424.8 ± 1 | 1427.7 ± 1.1 | 1430.4 ± 1.2 | 1433.2 ± 1.3 | 1436.1 ± 1.4 | 1438.8 ± 1.5 | 1392.1 ± 0.6 | 1398.9 ± 0.7 | 1402.4 ± 0.8 | 1405.4 ± 0.9 | 1408.6 ± 1 | 1411.8 ± 1.1 | 1414.7 ± 1.2 | 1417.6 ± 1.2 | 1420.5 ± 1.3 | 1423.3 ± 1.4 | mass density (348.15 K, 100 kPa): 1366.3 ± 0.6 kg/m3; mass density (348.15 K, 10000 kPa): 1373.5 ± 0.7 kg/m3; mass density (348.15 K, 15000 kPa): 1377.2 ± 0.8 kg/m3; mass density (348.15 K, 20000 kPa): 1380.8 ± 0.9 kg/m3; mass density (348.15 K, 25000 kPa): 1384.1 ± 0.9 kg/m3; mass density (348.15 K, 30000 kPa): 1387.6 ± 1 kg/m3; mass density (348.15 K, 35000 kPa): 1390.7 ± 1.1 kg/m3; mass density (348.15 K, 40000 kPa): 1393.8 ± 1.2 kg/m3; mass density (348.15 K, 45000 kPa): 1397 ± 1.3 kg/m3; mass density (348.15 K, 50000 kPa): 1399.9 ± 1.4 kg/m3 |
| CC(=O)c1ccccc1 [acetophenone] | 1023.4 ± 0.3 | 1029 ± 0.3 | 1031.7 ± 0.3 | 1034.3 ± 0.3 | 1036.8 ± 0.3 | 1039.3 ± 0.4 | 1041.8 ± 0.4 | 1044.4 ± 0.4 | 1046.7 ± 0.4 | 1049 ± 0.4 | 1005.9 ± 0.3 | 1012.2 ± 0.3 | 1015.2 ± 0.3 | 1018.1 ± 0.3 | 1020.9 ± 0.3 | 1023.6 ± 0.3 | 1026.4 ± 0.3 | 1028.8 ± 0.4 | 1031.5 ± 0.4 | 1034 ± 0.4 | mass density (348.15 K, 100 kPa): 979.6 ± 0.3 kg/m3; mass density (348.15 K, 10000 kPa): 987.1 ± 0.3 kg/m3; mass density (348.15 K, 15000 kPa): 990.5 ± 0.3 kg/m3; mass density (348.15 K, 20000 kPa): 993.6 ± 0.3 kg/m3; mass density (348.15 K, 25000 kPa): 996.9 ± 0.3 kg/m3; mass density (348.15 K, 30000 kPa): 1000.1 ± 0.3 kg/m3; mass density (348.15 K, 35000 kPa): 1003.1 ± 0.3 kg/m3; mass density (348.15 K, 40000 kPa): 1006.1 ± 0.3 kg/m3; mass density (348.15 K, 45000 kPa): 1009 ± 0.3 kg/m3; mass density (348.15 K, 50000 kPa): 1011.7 ± 0.3 kg/m3 |
| COc1ccccc1 [anisole] | 989.2 ± 0.3 | 995.6 ± 0.3 | 998.5 ± 0.3 | 1001.4 ± 0.3 | 1004.1 ± 0.3 | 1006.9 ± 0.3 | 1009.7 ± 0.3 | 1012.5 ± 0.3 | 1015.2 ± 0.3 | 1017.5 ± 0.3 | 969.9 ± 0.3 | 977.3 ± 0.3 | 980.4 ± 0.3 | 983.6 ± 0.3 | 986.9 ± 0.3 | 989.8 ± 0.3 | 992.9 ± 0.3 | 995.7 ± 0.3 | 998.6 ± 0.3 | 1001.5 ± 0.3 | mass density (348.15 K, 100 kPa): 941.3 ± 0.3 kg/m3; mass density (348.15 K, 10000 kPa): 949.8 ± 0.3 kg/m3; mass density (348.15 K, 15000 kPa): 953.5 ± 0.3 kg/m3; mass density (348.15 K, 20000 kPa): 957.3 ± 0.3 kg/m3; mass density (348.15 K, 25000 kPa): 961.1 ± 0.3 kg/m3; mass density (348.15 K, 30000 kPa): 964.5 ± 0.3 kg/m3; mass density (348.15 K, 35000 kPa): 967.9 ± 0.3 kg/m3; mass density (348.15 K, 40000 kPa): 971 ± 0.3 kg/m3; mass density (348.15 K, 45000 kPa): 974.5 ± 0.3 kg/m3; mass density (348.15 K, 50000 kPa): 977.8 ± 0.3 kg/m3 |
